Assay results taken from patent publication US9808536B2, “Hypericin albumin nanoparticle-Escherichia coli serum antibody complex and preperation method and application thereof” (LANZHOU INSTITUTE OF HUSBANDRY AND PHARMACEUTICAL SCIENCES …, priority 2015, dated 2017).
In brackets after ≈: the same amount, converted by molar mass.

Legend:
[1] = tested on: Escherichia coli; experiment: Treatment of colibacillosis animal model (mice); conditions: control groups, 30 mice; hypericin injection 1.0 mL/mouse intramuscular
[2] = tested on: pathogenic Escherichia coli; experiment: Treatment of chicken colibacillosis (sick chickens); conditions: 2.00 mg/Kg intramuscular, 2 times/d, 1 d, 50 chickens
[3] = tested on: Escherichia coli (E. coli) C4403; experiment: Minimal inhibitory concentration, double dilution method, Escherichia coli; conditions: for minimal inhibitory concentration: Escherichia coli, no growth on agar plate after 24 hours
[4] = tested on: Staphylococcus aureus (S. aureus) C26112; experiment: Minimal inhibitory concentration, double dilution method, Staphylococcus aureus; conditions: for minimal inhibitory concentration: Staphylococcus aureus, no growth on agar plate after 24 hours
[5] = 0.2 μg/ml, 24 hours, eye observation of turbidity
[6] = 0.4 μg/ml, 24 hours, eye observation of turbidity
[7] = 0.8 μg/ml, 24 hours, eye observation of turbidity
[8] = 3.2 μg/ml, 24 hours, eye observation of turbidity
[9] = 6.4 μg/ml, 24 hours, eye observation of turbidity
[10] = 12.8 μg/ml, 24 hours, eye observation of turbidity
[11] = 25.6 μg/ml, 24 hours, eye observation of turbidity

Cc1cc(O)c2c(=O)c3c(O)cc(O)c4c5c(O)cc(O)c6c(=O)c7c(O)cc(C)c8c1c2c(c34)c(c78)c65 [Hypericin, hypericin]
Cure (number of mice) [1]: 10 | Cure rate (%) [1]: 33.3% | Effective (number of mice) [1]: 27 | Effective rate (%) [1]: 90% | Cure rate (%) [2]: 70% | Effective rate (%) [2]: 80% | Total amount of cured ones [2]: 35 | Total amount of effective ones [2]: 40 | Cure rate (%) ([2]; listed as hypericin): 80% | bacterial growth in tube 8 [3, 5]: + | bacterial growth in tube 7 [3, 6]: + | bacterial growth in tube 6 [3, 7]: + | bacterial growth in tube 4 [3, 8]: − | bacterial growth in tube 3 [3, 9]: − | bacterial growth in tube 2 [3, 10]: − | bacterial growth in tube 1 [3, 11]: − | minimal inhibitory concentration [3]: 0.4 µg/mL (≈ 0.793 µM) | minimal inhibitory concentration ([3]; listed as 2): 6.4 µg/mL (≈ 12.7 µM) | bacterial growth in tube 8 [4, 5]: + | bacterial growth in tube 7 [4, 6]: + | bacterial growth in tube 6 [4, 7]: + | bacterial growth in tube 4 [4, 8]: − | bacterial growth in tube 3 [4, 9]: − | bacterial growth in tube 2 [4, 10]: − | bacterial growth in tube 1 [4, 11]: − | minimal inhibitory concentration [4]: 0.8 µg/mL (≈ 1.59 µM) | minimal inhibitory concentration ([4]; listed as 2): 6.4 µg/mL (≈ 12.7 µM)
